From patent US9447122B2, “Arginase inhibitors and methods of use thereof” (AstraZeneca AB, priority 2010, dated 2016)
Where a name gives a salt, the structure may show the parent alone. Read-outs that look alike come from different tables or passages of the source.

Columns and labels:
[1] = molecular target: T1, human arginase I (Homo sapiens, UniProt P05089); assay: Arginase inhibition, QuantiChrom colorimetric urea assay, IC50 converted to Ki; format: biochemical
T1 sequence (P05089 1-322): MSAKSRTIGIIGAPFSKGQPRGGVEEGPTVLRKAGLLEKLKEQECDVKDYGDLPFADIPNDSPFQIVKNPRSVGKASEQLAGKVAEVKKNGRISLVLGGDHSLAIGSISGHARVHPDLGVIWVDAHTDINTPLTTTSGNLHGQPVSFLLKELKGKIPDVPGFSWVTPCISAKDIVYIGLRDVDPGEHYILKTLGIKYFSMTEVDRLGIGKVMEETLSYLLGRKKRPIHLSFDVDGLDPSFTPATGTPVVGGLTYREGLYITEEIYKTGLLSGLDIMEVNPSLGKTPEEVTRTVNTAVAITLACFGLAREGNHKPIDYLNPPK
Procedure: (§1) For some compounds, their inhibitory potency at pH 7.5 was compared to the inhibitory potency of ABH at pH 7.5.
(§2) Quantitative determination of arginase activity was performed in a 96-well format by a colorimetric method using the QuantiChrom™ Arginase Assay Kit available from BioAssay Systems (Hayward, Calif., Catalog No. DARG-200) according to the manufacturer's protocol. Modifications were made to reagent quantities to suit the assaying of a highly purified sample.
(§3) The intensity of the color was directly proportional to the arginase activity in the sample.
(§4) The rate of urea production was measured in the presence of twelve different concentrations of each potential inhibitor compound. In a typical assay, seven different compounds were tested relative to a control inhibitor (e.g. ABH) against one enzyme (either human ArgI or human ArgII) at a particular pH (either 9.5 or 7.5). The pH of the solution was controlled using an appropriate pH buffering compound at 60 mM concentrations; for example, 60 mM glycine (pH 9.5) or 60 mM HEPES (pH 7.5). The half maximal inhibitory concentration (IC50) was determined by constructing a dose-response curve.

[2] = molecular target: T2, human arginase II (Homo sapiens, UniProt P78540); assay: as above; format: biochemical
T2 sequence (P78540 23-354): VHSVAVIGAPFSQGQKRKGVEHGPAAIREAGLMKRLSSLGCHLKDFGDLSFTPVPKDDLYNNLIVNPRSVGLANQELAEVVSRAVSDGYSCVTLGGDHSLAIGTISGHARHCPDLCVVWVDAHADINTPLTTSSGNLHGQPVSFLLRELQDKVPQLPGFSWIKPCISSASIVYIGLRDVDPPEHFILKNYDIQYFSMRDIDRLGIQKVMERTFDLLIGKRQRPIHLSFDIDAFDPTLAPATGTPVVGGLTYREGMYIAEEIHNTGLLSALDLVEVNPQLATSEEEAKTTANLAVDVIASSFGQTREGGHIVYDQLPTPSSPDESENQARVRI
Procedure: as §1, §2, §3, §4

[3] = system: Arg I and/or Arg II; assay: pH effect: inhibitory potency at pH 7.5 compared with pH 9.5; format: biochemical, human; settings: for increased potency for at least one isozyme: Table 2, pH 7.5 vs pH 9.5; for potency at pH 7.5 as compared to pH 9.5, arginases: both or at least one of the arginases
Procedure: as §1
as §4, with “curve. As IC50 values are dependent upon the measurement conditions, the IC50 values were converted to the inhibitor binding affinity (K1) using the Cheng-Prusoff equation and the affinity constant (Km) of L-arginine which was estimated with the same activity assay (see, e.g., Cheng et al., 1973, Biochem. Pharmacol. 22:3099-108).” for “curve.”

[4] = system: prostate cancer; settings: cited from earlier work
[5] = system: breast cancer; settings: cited from earlier work
[6] = system: Rats; assay: Myocardial ischemia-reperfusion injury, infarct size IA/AR; format: in vivo; settings: rat, 2 hrs reperfusion
Procedure: Rats were intraperitoneally (IP) anesthetized to effect with pentobarbital (˜50 mg/kg), shaved and positioned in dorsal recumbence, intubated and ventilated (˜90 breaths/min, ˜2.5 mL tidal volume with 95% O2/5% CO2) with an adjustable small animal ventilator (Harvard Apparatus). Anesthesia was maintained with a continuous sodium pentobarbital infusion (to effect, ˜3 to 5 mg/kg/h, IV) until completion of the study via an indwelling catheter placed in a peripheral vein (e.g., femoral). Body temperature was continuously monitored throughout the duration of the surgical/experimental procedures via a rectal probe, and was maintained within the physiological range via a heated temperature-controlled (closed-loop) small animal surgical table/control unit (Vestavia Scientific).
Subsequently, transthoracic needle electrodes forming a single-lead ECG (e.g., lead II) were placed. Once a surgical plane of anesthesia had been reached, a femoral artery was isolated, dissected free from the surrounding tissue, and cannulated with a 2F high-fidelity micromanometer catheter (Millar Instruments). In order to record arterial/systemic pressures, this catheter was advanced towards the abdominal aorta. An in-dwelling catheter was also placed in a vein (i.e., jugular) for administration of the test article/vehicle, or stains (see below).
Finally, the animals were placed in right-lateral recumbence and the heart was exposed by a left-side thoracotomy/pericardiotomy. Ligatures were loosely placed (using a taper-point needle) around the proximal section of the left anterior descending artery (LAD). Tightening of these snares (via small pieces of polyethylene tubing) rendered a portion of myocardium temporarily ischemic.
Following surgical preparation, the animals were allowed to reach hemodynamic stability (for approximately 15 min), and baseline data was collected. It should be noted that in order to ensure experimental/data homogeneity, all animals must have satisfied the following entry criteria: heart rate >320 bpm and mean arterial pressure >80 mmHg. The anesthetic regime may be adjusted in order to ensure proper anesthesia/analgesia and to satisfy such inclusion criteria.
After hemodynamic stabilization and baseline measurements, the animals were treated with either vehicle or test article delivered as an intravenous bolus. Subsequently (approximately 15 min post-dosing), the animals were subjected to an acute 30 min ischemic insult by tightening of the LAD coronary artery snare. Myocardial ischemia was visually confirmed both by the appearance of cyanotic changes in distal distributions of the LAD as well as by the onset of electrocardiographic changes. After approximately 30 min of induced ischemia, the coronary snares were released and the previously ischemic myocardium was reperfused for up to 2 hrs. Treatments were not administered during either the ischemia and/or reperfusion periods. It should also be noted that in order to minimize any possible confounding effects on indices of myocardial injury, non-self-resolving malignant arrhythmias/rhythms (e.g., ventricular tachycardia/fibrillation) developing during reperfusion were considered terminal (i.e., the experiment was terminated prematurely).
At the completion of the protocol, irreversible myocardial injury (i.e., infarction) resulting from the I/R insult was evaluated. […]

[7] = molecular target: T3, arginase (Homo sapiens, UniProt P78540); settings: literature; cited from earlier work
T3 sequence (P78540 23-354): T2 sequence (P78540 23-354)

[8] = system: opossum internal anal sphincter muscle; settings: cited from earlier work
[9] = system: guinea pigs; settings: nebulizer treatment, allergic asthma model; cited from earlier work
[10] = system: rabbit and human penile corpus cavernosum; settings: rabbit and human tissue; cited from earlier work
[11] = system: live male rabbits; settings: cited from earlier work
[12] = system: corpus cavernosum of the diabetic person; settings: ex vivo; cited from earlier work
[13] = system: female rabbits; settings: cited from earlier work
[14] = system: animal model of multiple sclerosis (experimental autoimmune encephalomyelitis); settings: cited from earlier work
[15] = Table 2, pH 7.5, read-out: human arginase I pH 7.5, Ki assigned value
[16] = Table 2, pH 9.5, read-out: human arginase I pH 9.5, Ki assigned value
[17] = Table 2, pH 7.5, read-out: human arginase II pH 7.5, Ki assigned value
[18] = Table 2, pH 9.5, read-out: human arginase II pH 9.5, Ki assigned value
[19] = Table 3, pH 7.5, read-out: human Arginase I pH 7.5, Ki assigned value
[20] = Table 3, pH 9.5, read-out: human Arginase I pH 9.5, Ki assigned value
[21] = Table 3, pH 7.5, read-out: human Arginase II pH 7.5, Ki assigned value
[22] = Table 3, pH 9.5, read-out: human Arginase II pH 9.5, Ki assigned value
[23] = 1 mg/kg iv bolus about 15 min before 30 min ischemia
[24] = 3 mg/kg iv bolus about 15 min before 30 min ischemia

Row | Structure (SMILES) | Ki [1, 15] [nM] | Ki [1, 16] [nM] | Ki [2, 17] [nM] | Ki [2, 18] [nM] | increased potency for at least one isozyme [3] | potency at pH 7.5 as compared to pH 9.5, arginases [3] | Ki [1, 19] [nM] | Ki [1, 20] [nM] | Ki [2, 21] [nM] | Ki [2, 22] [nM] | also measured
1 | NC(CCCCB(O)O)(CCCC1CCN(Cc2ccc(Cl)c(Cl)c2)CC1)C(=O)O (centres unmarked) [Comparative Example 2, reference compound] | 101 to 250 | 11 to 50 | 101 to 250 | 11 to 50 | no ^b | decreased potencies | – | – | – | – | –
2 | NC(CCCCB(O)O)(CCCC1CCN(Cc2ccc(F)cc2)CC1)C(=O)O (centres unmarked) [Comparative Example 3, reference compound] | 251 to 400 | 11 to 50 | 251 to 400 | 11 to 50 | no ^b | decreased potencies | – | – | – | – | –
3 | NC(CCCCB(O)O)(CCCN1CCN(C(=O)c2ccc(Cl)c(Cl)c2)CC1)C(=O)O (centres unmarked) [Example 129, 2-amino-6-borono-(3-(4-(3,4-dichlorobenzoyl)piperazine-1-yl)propyl)hexanoic acid] | – | – | – | – | – | – | 11 to 50 | 51 to 100 | 251 to 400 | 51 to 100 | selectivity for arginase I over arginase II ([3]; at pH 7.5 / lower pHs): selectivity for arginase I over arginase II
4 | N=C(NO)NCCC[C@H](N)C(=O)O [N-hydroxy-L-arginine, N^Ω-hydroxy-L-arginine] | – | – | – | – | – | – | – | – | – | – | tumor immunotherapy [4]: facilitates tumor immunotherapy; cell proliferation and apoptosis [5]: inhibits cell proliferation and induces apoptosis
5 | NC(CCCCB(O)O)(CCCN1CCN(Cc2ccc(Cl)c(Cl)c2)CC1)C(=O)O (centres unmarked) [Example 8] | < 10 | 11 to 50 | 11 to 50 | 11 to 50 | – | – | – | – | – | – | Mean IA/AR (%) [6, 23]: 32%; Mean IA/AR (%) [6, 24]: 29%
6 | CS(=O)(=O)c1ccc(CN2CCN(CCCC(N)(CCCCB(O)O)C(=O)O)CC2)cc1 (centres unmarked) [Example 10] | – | – | – | – | – | – | < 10 | 11 to 50 | 11 to 50 | 11 to 50 | Mean IA/AR (%) [6, 23]: 24%; Mean IA/AR (%) [6, 24]: 22%; Mean IA/AR (%) ([6]; 10 mg/kg iv bolus about 15 min before 30 min ischemia): 17%
7 | NC(CCCCB(O)O)(CCCC1CCNCC1)C(=O)O (centres unmarked) [Comparative Example 1, reference compound] | 101 to 250 | 11 to 50 | > 400 | < 10 | no ^b | lower potencies | – | – | – | – | –
8 | NC(CCCCB(O)O)(CCCN1CCNCC1)C(=O)O (centres unmarked) [Comparative Example 4, 2-Amino-6-borono-2-(3-(piperazine-1-yl)propyl)hexanoic acid trifluoroacetate salt, reference compound] | 11 to 50 | 51 to 100 | > 400 | 11 to 50 | yes ^a | – | – | – | – | – | change of human arginase I inhibitory potency ([1]; pH decreased from 9.5 to 7.5): increased potency
9 | N[C@@H](CCCCB(O)O)C(=O)O [ABH, 2(S)-amino-6-boronohexanoic acid] | 51 to 100 | 11 to 50 | 101 to 250 | 11 to 50 | no ^b | decrease in inhibitory potency | – | – | – | – | inhibitory potency at pH 7.5 vs pH 9.5 [7]: much lower at pH 7.5 than at pH 9.5; relaxation of internal anal sphincter muscle [8]: relax this muscle; airway hyperresponsiveness [9]: prevents airway hyperresponsiveness; NO-dependent relaxation of corpus cavernosum [10]: enhances the NO-dependent relaxation; erectile response [11]: enhances the erectile response; NO biosynthesis [12]: restores NO biosynthesis; engorgement response in the genitalia [13]: enhances the engorgement response; disease score [14]: improves the disease score
10 | NC(CCCCB(O)O)(CCCN1CCN(Cc2cccc(C(F)(F)F)c2)CC1)C(=O)O (centres unmarked) [Example 9] | – | – | – | – | – | – | < 10 | 51 to 100 | 11 to 50 | 11 to 50 | –
11 | NC(CCCCB(O)O)(CCCN1CCCCC1c1ccc(F)cc1)C(=O)O (centres unmarked) [Example 17] | < 10 | 11 to 50 | 101 to 250 | 11 to 50 | – | – | – | – | – | – | –
12 | CN1CCN(CCCC(N)(CCCCB(O)O)C(=O)O)C(c2ccccc2)C1 (centres unmarked) [Example 46] | – | – | – | – | – | – | 11 to 50 | 11 to 50 | 11 to 50 | < 10 | –
13 | CN(C)CCNCCCC(N)(CCCCB(O)O)C(=O)O (centres unmarked) [Example 89] | – | – | – | – | – | – | < 10 | < 10 | < 10 | 11 to 50 | –
